Data set [1] deals with LPS-induced NF-κB/AP-1 transcriptional activity in THP-1Blue cells. As to the kind of experiment: LPS-induced NF-κB/AP-1 reporter (secreted alkaline phosphatase) activity in THP-1Blue cells. The class given is cell-based, human. The note with it: for inhibitory activity in THP-1Blue cells (in words): LPS-induced NF-κB/AP-1 reporter activity; for IC50: THP-1Blue cells, 30 min pretreatment, 250 ng/mL LPS for 24 h, alkaline phosphatase in supernatant, read-out: AP Production IC50. How it is done:
THP-1 cells are a human monocyte cell line that was developed from a monocyte isolated from the peripheral blood of an acute monocytic leukemia patient. This cell line is used as a monocyte/macrophage model in immunology research. The THP-1Blue cells obtained from InvivoGen (San Diego, CA, USA) are THP-1 cells that were stably transfected with a secreted embryonic alkaline phosphatase gene that is under control of a NF-κB/AP-1-inducible promoter. For this study, THP-1Blue cells were cultured at 37 °C in a humidified atmosphere containing 5% CO2 in RPMI 1640 medium (Mediatech Inc., Herndon, VA, USA) supplemented with 10% (v/v) fetal bovine serum (FBS), 100 μg/mL streptomycin, 100 U/mL penicillin, 100 μg/mL phleomycin (Zeocin), and 10 μg/mL blasticidin S (all from Sigma-Aldrich, St. Louis, MO, USA).
To measure the activation of AP-1/NF-κB, the THP-1Blue cells (2 × 10^5 cells/well) were pretreated with the test compounds or dimethyl sulfoxide (DMSO; 1% final concentration) for 30 min, followed by the addition of 250 ng/mL of lipopolysaccharide (LPS; from Escherichia coli strain 0111:B4) for 24 h, and alkaline phosphatase activity was measured in the cell supernatants using the QUANTI-Blue mix (InvivoGen) as the absorbance at 655 nm and compared with positive control samples (LPS). The concentration of the compound that caused 50% inhibition of the NF-κB reporter activity (IC50) was calculated.

In data set [2] the test system is THP-1Blue cells. The data set can be described thus: Cytotoxicity, CellTiter-Glo Luminescent Cell Viability Assay. It is filed as cell-based, human. The note with it: 24 h, concentrations up to 50 µM. How it is done:
Cytotoxicity was analyzed with a CellTiter-Glo Luminescent Cell Viability Assay Kit from Promega (Madison, WI, USA) according to the manufacturer’s protocol. THP-1Blue cells were treated with varying concentrations of the test compounds (up to 50 µM) and cultivated for 24 h. After treatment, the cells were allowed to equilibrate to room temperature for 30 min, the substrate was added, and the samples were analyzed with a Fluoroscan Ascent FL (Thermo Fisher Scientific, Waltham, MA, USA).

Like-named read-outs stand apart in the source and are kept apart here.

The values that follow come from publication PMC11173647, “Anti-Inflammatory Activity of Pyrazolo[1,5-a]quinazolines” (Molecules, 2024).

On to “5-{[4-(Methanesulfonyl)phenyl]methoxy}-3-(thiophen-3-yl)pyrazolo[1,5-a]quinazoline [compound 20]”, for which, in data set [1], the “inhibitory activity in THP-1Blue cells (in words)” value is given as “moderate activity” and the IC50 was 13.3 ± 2.6 µM. In addition, the Cytotoxicity entry in data set [2] is listed as “N.T. (no cytotoxicity was found in THP-1Blue cells at concentrations up to 50 µM)”. `CSc1ccc(Cn2c(=O)c3ccccc3n3ncc(C#N)c23)cc1` (hydrate or solvate) [7e]: the melting point lay in the range of 189 to 192 °C. Same read-out and setting: in the case of `CSc1ccc(Cn2c(=O)c3ccccc3n3nccc23)cc1` (hydrate or solvate) [7f] it was 137 to 139 °C; in that of `NC(=O)c1cnn2c1nc(OCc1ccc(S(N)(=O)=O)cc1)c1ccc(Cl)cc12` (hydrate or solvate) [23c, 8-Chloro-5-(4-sulfamoylbenzyloxy)pyrazolo[1,5-a]quinazoline-3-carboxamide], 177 to 180 °C; in that of `N#Cc1cnn2c1[nH]c(=O)c1ccc([N+](=O)[O-])cc12` [2c], 280 to 283 °C.

Take `N#Cc1cnn2c1[nH]c(=O)c1cc([N+](=O)[O-])ccc12` [2d]: the melting point was greater than 295 °C.

Turning to `CCOC(=O)c1cnn2c1[nH]c(=O)c1ccc([N+](=O)[O-])cc12` [4c], the melting point lay within 195 to 197 °C.

In turn, `CCOC(=O)c1cnn2c1[nH]c(=O)c1cc([N+](=O)[O-])ccc12` [4d] yielded a melting point of 217 to 220 °C. Still for that read-out and setting: in the case of `CCOC(=O)c1cnn2c3ccccc3c(=O)n(Cc3ccc(S(N)(=O)=O)cc3)c12` [7c] it was 224 to 226 °C. The compound `COc1nc2c(C(N)=O)cnn2c2ccccc12` [13a, 5-Methoxypyrazolo[1,5-a]quinazoline-3-carboxamide] yielded a melting point of 246 to 247 °C. For the same compound, the IC50 in data set [1] (Homo sapiens) is 24.4 ± 3.1 µM. Moreover, in data set [2], the Cytotoxicity result is on record as “N.T. (no cytotoxicity was found in THP-1Blue cells at concentrations up to 50 µM)”. Consider `NC(=O)c1cnn2c1nc(OCc1ccccc1Cl)c1ccccc12` [13d], for which the melting point was 227 to 229 °C. Same read-out and setting: the result for `NC(=O)c1cnn2c1nc(OCc1cccc(Cl)c1)c1ccccc12` [13e] reads 242 to 245 °C. On the same count and under the same terms, in the case of `NC(=O)c1cnn2c1nc(OCc1ccc(Br)cc1)c1ccccc12` [13f] it was 243 to 244 °C; in that of `Cc1ccccc1COc1nc2c(C(N)=O)cnn2c2ccccc12` [13g], 226 to 227 °C.

In turn, `COc1cccc(COc2nc3c(C(N)=O)cnn3c3ccccc23)c1` [13h] came in with a melting point of 210 to 212 °C. `CSc1ccc(Cn2c(=O)c3ccccc3n3ncc(C(N)=O)c23)cc1` [14c] yielded a melting point of 276 to 279 °C.

The compound `c1ccc(COc2nc3c(-c4ccsc4)cnn3c3ccccc23)cc1` [21a] yielded a melting point of 179 to 181 °C. Same read-out and setting: in the case of `Nc1ccccc1COc1nc2c(-c3ccsc3)cnn2c2ccccc12` [21b] it was 125 to 126 °C. In turn, `COc1nc2c(C(N)=O)cnn2c2cc(Cl)ccc12` [23a, 8-Chloro-5-methoxypyrazolo[1,5-a]quinazoline-3-carboxamide] registered a melting point of 288 to 290 °C. The IC50 in data set [1] (Homo sapiens) was found to be 7.9 ± 1.6 µM. Moreover, the Cytotoxicity result in data set [2] is “N.T. (no cytotoxicity was found in THP-1Blue cells at concentrations up to 50 µM)”. Consider `NC(=O)c1cnn2c1nc(OCc1ccc(S(N)(=O)=O)cc1)c1ccc(Cl)cc12` [23c, 8-Chloro-5-(4-sulfamoylbenzyloxy)pyrazolo[1,5-a]quinazoline-3-carboxamide], for which, in data set [1] (Homo sapiens), the 50% inhibitory concentration (IC50) is 12.2 ± 2.1 µM. Moreover, in data set [2], the Cytotoxicity entry is given as “N.T. (no cytotoxicity was found in THP-1Blue cells at concentrations up to 50 µM)”. For the compound `COc1nc2c(C(N)=O)cnn2c2cc([N+](=O)[O-])ccc12` [33a, 5-Methoxy-8-nitropyrazolo[1,5-a]quinazoline-3-carboxamide], the IC50 in data set [1] (Homo sapiens) worked out at 14.1 ± 2.9 µM. For the same compound, the Cytotoxicity result in data set [2] is “N.T. (no cytotoxicity was found in THP-1Blue cells at concentrations up to 50 µM)”. `COc1nc2c(C(N)=O)cnn2c2ccc([N+](=O)[O-])cc12` [33b, 5-Methoxy-7-nitropyrazolo[1,5-a]quinazoline-3-carboxamide] gave a melting point of 269 to 271 °C. Further, the IC50 in data set [1] (Homo sapiens) worked out at 18.2 ± 2.5 µM. Further, the Cytotoxicity entry in data set [2] is “N.T. (no cytotoxicity was found in THP-1Blue cells at concentrations up to 50 µM)”. `CNc1nc2c(C#N)cnn2c2cc([N+](=O)[O-])ccc12` [42a, 5-(Methylamino)-8-nitropyrazolo[1,5-a]quinazoline-3-carbonitrile] came in with a melting point greater than 300 °C. In addition, the IC50 in data set [1] (Homo sapiens) amounted to 30.1 ± 3.3 µM. Further, the “inhibitory activity in THP-1Blue cells (in words)” value in data set [1] is listed as “moderate activity”. Besides, in data set [2], the Cytotoxicity result was “N.T. (no cytotoxicity was found in THP-1Blue cells at concentrations up to 50 µM)”. As for `N#Cc1cnn2c1nc(Nc1ccc(N)cc1)c1ccc([N+](=O)[O-])cc12` [42c], the melting point was greater than 295 °C. On the same count and under the same terms, the result for `N#Cc1cnn2c1nc(Nc1ccc(N)cc1)c1cc([N+](=O)[O-])ccc12` [42d] reads greater than 295 °C.

For the compound `COc1nc2c(C(N)=O)cnn2c2cc(N)ccc12` [46a], the melting point was greater than 300 °C. Same read-out and setting: in the case of `CNc1nc2c(C#N)cnn2c2cc(N)ccc12` [46b] it was greater than 300 °C. The same measure, in the same setting: the result for `CNc1nc2c(C(N)=O)cnn2c2cc(N)ccc12` [46c] reads greater than 300 °C; that for `CCOC(=O)c1cnn2c1ncc1c(=O)nc[nH]c12` [53a], greater than 300 °C; that for `O=c1nc[nH]c2c1cnc1ccnn12` [53b], greater than 300 °C. Consider `COc1ccc2c(c1)-n1ncc(C(=O)NCc3ccccc3)c1NC2` [58c], for which the IC50 was determined as 39.1 µM in data set [1] (Homo sapiens) and 34.1 ± 4.1 µM in data set [1]. Moreover, in data set [2], the Cytotoxicity entry was “N.T. (no cytotoxicity was found in THP-1Blue cells at concentrations up to 50 µM)”. `C[S+]([O-])c1ccc(Cn2c(=O)c3ccccc3n3ncc(I)c23)cc1` (stereo not shown) [compound 9] returned a melting point of 198 to 201 °C.

As for `c1ccc(CNc2nc3c(-c4ccsc4)cnn3c3ccccc23)cc1` [compound 22], the melting point lay within 176 to 177 °C. The compound `CN(C)/C=N/C(=O)c1cnn2c1[nH]c(=O)c1ccc(Cl)cc12` [compound 26, (E)-8-Chloro-N-[(dimethylamino)methylene]-5-oxo-4,5-dihydropyrazolo[1,5-a]quinazoline-3-carboxamide] came in with a melting point of 288 to 290 °C. In addition, the IC50 in data set [1] (Homo sapiens) turned out to be 49.3 ± 4.6 µM. Besides, in data set [2], the Cytotoxicity entry was “N.T. (no cytotoxicity was found in THP-1Blue cells at concentrations up to 50 µM)”. `CCOC(=O)c1cnn2c1nc(Nc1ccc(N)cc1)c1cc([N+](=O)[O-])ccc12` [compound 40] came in with a melting point of 269 to 271 °C.

In turn, `CNc1nc2c(C(N)=O)cnn2c2cc([N+](=O)[O-])ccc12` [compound 43, 5-(Methylamino)-8-nitropyrazolo[1,5-a]quinazoline-3-carboxamide] had a melting point greater than 300 °C. Besides, the IC50 in data set [1] (Homo sapiens) is 11.8 ± 2.2 µM. Also, the Cytotoxicity entry in data set [2] is given as “N.T. (no cytotoxicity was found in THP-1Blue cells at concentrations up to 50 µM)”. `COc1nc2c(C#N)cnn2c2cc(N)ccc12` [compound 47, 8-amino-5-methoxy-PQ-3-carbonitrile] yielded a melting point greater than 300 °C.

With `Cn1c(=O)c2ccc(N)cc2n2ncc(C#N)c12` [compound 48], the melting point was 286 to 288 °C.

`Cn1c(=O)c2ccc(N)cc2n2ncc(C(N)=O)c12` [compound 49] yielded a melting point greater than 300 °C.
